Key:
HTCFs = assay: Collagen Contraction Assay III (TGFB1-induced); assay type: cell-based, human; settings: ASA 1000 or 1500 μg/ml, with or without gentamicin; TGFB1 2 ng/ml added at 48 hrs
Description: A modified delayed release fibroblast populated collagen lattice model was used to assess inhibition of TGFB1-induced collagen contraction by ASA and gentamicin. HTCFs were seeded at a density of 2.5×10^5 cells/mL within an extracellular matrix (ECM) mixture containing 400 ul of rat tail-derived type I collagen (1.8 mg/ml), 80 ul of neutralizing solution (equal parts Waymouth's media (Gibco, CAT. NO: 11220035) and 0.275M NaOH) and 20 ul of HTCF conditioned media (concentrated to 25× to obtain a 1× final concentration within the 500 ul matrix solution). The cell-collagen solution was pipetted gently to ensure homogenous distribution of HTCFs while avoiding the production of air bubbles, then 500 ul were pipetted into each well of a 24-well tray. […]
Tension was allowed to build up within the tethered matrix at 37 C and 5% CO2 for 72 hours before a sterile spatula was used to detach each collagen construct from the edges of the culture well. Plates were then immediately scanned on a flat bed laser scanner for a baseline area reading and then measured again regularly for a total of 4 days. […] The surface area of each collagen construct was measured using ImageJ (NIH) and standardized against the baseline surface area measurement to express changes in area as a percentage of original surface area. […]

MMP9 = assay: Western blot of HTCF protein lysate, MMP9; assay type: cell-based, human; settings: ASA 100, 400, 1600 μg/ml, 48 hrs
Description: Cells were lysed in lysis buffer (PhosphoSafe Extraction Reagent, Novagen) containing a protease inhibitor cocktail (P2714, Sigma-Aldrich). Crude protein lysate was quantified using a Pierce BCA protein assay kit (ThermoFisher, Mississauga, ON) and 10 ug from each sample was resolved using a Novex WedgeWell 4-20% tris-glycine gel (Invitrogen). Using an iBlot Gel Transfer Device (IB1001, Invitrogen), the separated protein was transferred to a nitrocellulose membrane (1B301001, iBlot Transfer Stack, Invitrogen) which was then blocked with 5% (w/v) bovine serum albumin (Sigma-Aldrich) in Tris buffered saline (TBST) for 1 hour at room temperature. The membranes were incubated overnight at 4° C. with primary antibody diluted in TBST containing 5% BSA (w/vol). Primary antibodies used were as follows: collagen 1 (ab138492, Abcam), αSMA (ab5694, Abcam), MMP9 (ab38898, Abcam), PPARγ (sc-7273, SantaCruz Biotechnology), SMAD2/3 (ab63672, Abcam), pSMAD2/3 (ab63399, Abcam) and GAPDH (sc-47724, Santa Cruz Biotechnology, Inc.). […] Imaging and relative densiometric quantification was accomplished using a ChemiDoc MP System (Bio-Rad Laboratories, Inc.) connected to Image Lab (Version 6, Bio-Rad Laboratories, Inc.).

Compound: CC(=O)Oc1ccccc1C(=O)O [ASA, acetylsalicylic acid]
- HTCF-mediated collagen contraction before and after TGFb1 stimulus (HTCFs): significantly impair HTCF-mediated contraction, at all concentrations assessed, both before and after stimulus with TGFb1
- AHGF-induced expression of MMP9 (MMP9): significantly impaired the AHGF-induced expression

— patent US20210196731A1, “COMPOSITIONS AND METHODS FOR TREATING OCULAR INFLAMMATION AND OCULAR SCARRING” (priority 2018, published 2021)
